The results in this text go back to BindingDB's records for doi:10.1016/j.bmcl.2012.05.087 (Actelion Pharmaceuticals, 2012).

The nature of the test: Antagonist activity at human CRTh2 receptor in human whole blood assessed as inhibition of PGD2-induced eosinophil shape change after 10 mins by flow cytometric analysis in presence of 50% human plasma. (A flow cytometer gives signals particle by particle.)
`COc1ccc(C(C)=O)cc1CSc1nc2ccccc2n1CC(=O)O`: the concentration for half-maximal inhibition (IC50) (as a rule, the point on the concentration scale where inhibition reaches its midpoint) stood at 16 nM.

Regarding `COc1ccc(C(=O)N2CCc3ccccc32)cc1CSc1nc2cc(F)ccc2n1CC(=O)O`, the IC50 is 51 nM.

For the compound `CCCCNC(=O)c1ccc(OC)c(CSc2nc3cc(F)ccc3n2CC(=O)O)c1`, the IC50 was determined as 41 nM.
